{
  "source": "ChEMBL document CHEMBL1132887",
  "about": "“Syntheses and biological evaluation of novel 2alpha-substituted 1alpha,25-dihydroxyvitamin D3 analogues” (2000)",
  "parameters_in_all_cases": "reference not given here",
  "key": {"HL-60": {"system": "HL-60", "assay": "Compound was evaluated for HL-60 cell differentiation which was assessed in terms of expression of antigen CD11b", "format": "functional, Homo sapiens"}, "Rattus norvegicus": {"organism": "Rattus norvegicus", "assay": "Compound was evaluated for calcium mobilizing activity in rat serum", "format": "functional"}, "[1]": {"molecular_target": "T1, Vitamin D3 receptor (Bos taurus) (UniProt Q28037)", "T1 sequence (whole entry)": "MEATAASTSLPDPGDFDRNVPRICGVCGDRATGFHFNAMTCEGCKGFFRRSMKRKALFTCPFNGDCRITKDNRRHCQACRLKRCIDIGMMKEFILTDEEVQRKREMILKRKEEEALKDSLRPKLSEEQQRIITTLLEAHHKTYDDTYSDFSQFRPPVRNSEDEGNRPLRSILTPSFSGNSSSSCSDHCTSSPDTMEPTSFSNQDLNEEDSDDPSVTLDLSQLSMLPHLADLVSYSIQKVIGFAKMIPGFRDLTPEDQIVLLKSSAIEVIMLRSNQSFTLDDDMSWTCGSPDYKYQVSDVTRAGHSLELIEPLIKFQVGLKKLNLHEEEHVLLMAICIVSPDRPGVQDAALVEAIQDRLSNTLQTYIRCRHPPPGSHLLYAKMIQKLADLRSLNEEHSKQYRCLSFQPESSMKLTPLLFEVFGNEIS", "assay": "Binding affinity for bovine thymus vitamin D receptor (VDR)"}, "[2]": {"molecular_target": "T2, Vitamin D-binding protein (Rattus norvegicus) (UniProt P04276)", "T2 sequence (whole entry)": "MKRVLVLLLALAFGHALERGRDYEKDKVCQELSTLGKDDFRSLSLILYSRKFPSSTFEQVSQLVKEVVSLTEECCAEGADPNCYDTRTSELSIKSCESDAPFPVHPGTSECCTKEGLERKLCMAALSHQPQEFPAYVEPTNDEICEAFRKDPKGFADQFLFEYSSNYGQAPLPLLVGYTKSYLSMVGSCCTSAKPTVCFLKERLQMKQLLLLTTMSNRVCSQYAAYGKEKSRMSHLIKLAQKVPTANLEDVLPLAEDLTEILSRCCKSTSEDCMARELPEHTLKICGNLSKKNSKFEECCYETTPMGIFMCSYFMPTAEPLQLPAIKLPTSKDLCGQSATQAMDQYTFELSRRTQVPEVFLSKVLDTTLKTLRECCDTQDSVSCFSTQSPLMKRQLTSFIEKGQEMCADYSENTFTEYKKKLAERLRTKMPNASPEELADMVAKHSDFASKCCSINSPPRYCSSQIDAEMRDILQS", "assay": "Compound was tested for binding affinity against rat serum DBP (vitamin D binding protein)", "format": "cell-free"}},
  "data": [
    {"smiles": "C=C1/C(=C\\C=C2/CCC[C@]3(C)[C@@H]([C@H](C)CCCC(C)(C)O)CC[C@@H]23)C[C@@H](O)[C@H](CC)[C@@H]1O", "values": [
      {"measurement": "Activity", "setting": "HL-60", "result": 106},
      {"measurement": "Activity", "setting": "Rattus norvegicus", "result": 68},
      {"measurement": "Activity", "setting": "[1]", "result": 40},
      {"measurement": "Activity", "setting": "[2]", "result": 48}
    ]},
    {"smiles": "C=C1/C(=C\\C=C2/CCC[C@]3(C)[C@@H]([C@H](C)CCCC(C)(C)O)CC[C@@H]23)C[C@@H](O)[C@H](CCCO)[C@@H]1O", "values": [
      {"measurement": "Activity", "setting": "HL-60", "result": 240},
      {"measurement": "Activity", "setting": "Rattus norvegicus", "result": 50866},
      {"measurement": "Activity", "setting": "[1]", "result": 300},
      {"measurement": "Activity", "setting": "[2]", "result": 362}
    ]},
    {"smiles": "C=C1/C(=C\\C=C2/CCC[C@]3(C)[C@@H]([C@H](C)CCCC(C)(C)O)CC[C@@H]23)C[C@@H](O)[C@H](CCO)[C@@H]1O", "values": [
      {"measurement": "Activity", "setting": "HL-60", "result": 86},
      {"measurement": "Activity", "setting": "Rattus norvegicus", "result": 372},
      {"measurement": "Activity", "setting": "[1]", "result": 70},
      {"measurement": "Activity", "setting": "[2]", "result": 74}
    ]},
    {"smiles": "C=C1/C(=C\\C=C2/CCC[C@]3(C)[C@@H]([C@H](C)CCCC(C)(C)O)CC[C@@H]23)C[C@@H](O)[C@H](CO)[C@@H]1O", "values": [
      {"measurement": "Activity", "setting": "HL-60", "result": 10},
      {"measurement": "Activity", "setting": "Rattus norvegicus", "result": 124},
      {"measurement": "Activity", "setting": "[1]", "result": 20},
      {"measurement": "Activity", "setting": "[2]", "result": 95}
    ]},
    {"smiles": "C=C1/C(=C\\C=C2/CCC[C@]3(C)[C@@H]([C@H](C)CCCC(C)(C)O)CC[C@@H]23)C[C@@H](O)C[C@@H]1O", "note": "[CALCITRIOL]", "values": [
      {"measurement": "Activity", "setting": "HL-60", "result": 100},
      {"measurement": "Activity", "setting": "Rattus norvegicus", "result": 100},
      {"measurement": "Activity", "setting": "[1]", "result": 100},
      {"measurement": "Activity", "setting": "[2]", "result": 100}
    ]},
    {"smiles": "C=C1/C(=C\\C=C2/CCC[C@]3(C)[C@@H]([C@H](C)CCCC(C)(C)O)CC[C@@H]23)C[C@@H](O)[C@H](C)[C@@H]1O", "values": [
      {"measurement": "Activity", "setting": "HL-60", "result": 444},
      {"measurement": "Activity", "setting": "Rattus norvegicus", "result": 658},
      {"measurement": "Activity", "setting": "[1]", "result": 400},
      {"measurement": "Activity", "setting": "[2]", "result": 44}
    ]},
    {"smiles": "C=C1/C(=C\\C=C2/CCC[C@]3(C)[C@@H]([C@H](C)CCCC(C)(C)O)CC[C@@H]23)C[C@@H](O)[C@H](CCC)[C@@H]1O", "values": [
      {"measurement": "Activity", "setting": "HL-60", "result": 44},
      {"measurement": "Activity", "setting": "Rattus norvegicus", "result": 636},
      {"measurement": "Activity", "setting": "[1]", "result": 20},
      {"measurement": "Activity", "setting": "[2]", "result": 21}
    ]}
  ]
}
